# Laboratory results as given in US20250064808A1, “METHODS FOR THE TREATMENT OF NLRP3 RELATED DISORDERS” (priority 2022, published 2025).
# Assays:
# BMDM [1] = assay: cytosolic Ox-mtDNA (8-OH-dG ELISA of cytosolic mtDNA) in BMDM; assay type: cell-based, mouse; settings: LPS-primed BMDM, compound 10 μM 16 h, ATP 4 mM 1 h
# Description: (§1) Bone marrow cells were cultured in high glucose DMEM supplemented with 10% FBS, 20% L929-cell conditioned medium, and 100 U/mL penicillin-streptomycin for 7-10 days at 37° C. with 5% CO2 (Hornung et al., 2008).
# (§2) BMDM were stimulated as indicated. […] Briefly, BMDM were washed with PBS and harvested, 10% of which were saved for DNA extraction of whole cells. The remaining BMDM resuspended with pre-chilled mitochondrial extraction buffer 1 (220 mM mannitol, 70 mM sucrose, 20 mM HEPES-KOH, pH 7.5, 1 mM EDTA and 2 mg/mL bovine serum albumin) supplemented with a protease inhibitor cocktail and a phosphatase inhibitor cocktail were passed through a 25-G syringe (BD Biosciences) 20 times on ice. The homogenized cells were centrifuged at 1000×g for 15 minutes at 4° C. The supernatant was further centrifuged at 10,000×g for 10 minutes at 4° C. to pellet the mitochondria from supernatant cytosolic fraction. qPCR was performed after DNA purification with AllPrep DNA/RNA Mini Kit according to manufacturer's instructions, from both whole cell extracts and cytosolic fractions using mtDNA primers (D-loop, Cox1, non-NUMT), or after DNA purification from whole cell extracts using nuclear DNA primers (Tert, 18S, B2m). The Ct values obtained for mtDNA abundance in whole cell extracts served as normalization controls for the mtDNA values obtained from the cytosolic fractions. For the measurement of Ox-mtDNA, purified mtDNA was extracted from the cytosolic or mitochondrial fractions as indicated. The 8-OH-dG content was then quantified using 8-hydroxy 2-deoxyguanosine ELISA Kit, per manufacturer's instructions.
# BMDM [2] = assay: cytosolic mtDNA (qPCR after cellular fractionation) in BMDM; assay type: cell-based, mouse; settings: LPS-primed BMDM, compound 10 μM 16 h, ATP 4 mM 1 h
# Description: as §1, §2
# NLRP3 inflammasome [3] = assay: NLRP3 inflammasome activation (Casp1 p20 and mature IL-1β, IB and ELISA) in BMDM; assay type: cell-based, mouse; settings: LPS-primed BMDM, compound pretreatment 16 h, challenged with NLRP3 activators
# Source text: Paired antibodies (capture and detection) and standard recombinant mouse IL-1β and TNF were used to determine mouse cytokine concentrations according to manufacturer's instructions.
# BMDM [4] = assay: total mtDNA (LPS-stimulated mtDNA synthesis, qPCR) in BMDM; assay type: cell-based, mouse; settings: compound 10 μM 16 h, before or after LPS priming
# Source text: Nuclear DNA encoding telomerase reverse transcriptase (Tert), 18S ribosomal RNA and β2 microglobulin (B2m) was used for normalization.
# BMDM [5] = assay: mtDNA fragmentation (agarose gel of cytosolic and mitochondrial DNA) in BMDM; assay type: cell-based, mouse; settings: FEN1-IN-4 10 μM 16 h, LPS-primed, ATP
# Source text: To analyze DNA fragmentation and extrusion in mitochondrial and cytosolic fractions, BMDM (15000,000 cells per group) were stimulated as indicated and fractionalized as above. […] Cytosolic, mitochondrial or nuclear DNAs were purified using AllPrep DNA/RNA Mini Kit according to manufacturer's instructions and analyzed on 1% agarose gels stained with ethidium bromide.
# NLRP3 inflammasome [6] = assay: alum-induced peritonitis in mice; assay type: in vivo, mouse
# Description: 8-12-week-old male C57BL/6 mice and WT or mt-Ogg1Tg mice were allocated randomly and i.p. injected with alum (1 mg dissolved in 0.2 mL sterile PBS) or PBS. Peritoneal lavage was collected 4 h post-injection to measure cytokine amounts by ELISA. […] Neutrophils (CD11b^+Ly6G^+F4/80^−) and monocytes (CD11b^+Ly6C^+Ly6G^−) present in peritoneal lavage fluid were quantified by flow cytometry. For blocking Fc-mediated interactions, mouse cells were pre-incubated with 0.5-1 μg of purified anti-mouse CD16/CD32 per 100 μL. Isolated cells were stained with labelled antibodies in PBS with 2% FCS and 2 mM EDTA or cell staining buffer (Biolegend). Dead cells were excluded based on staining with propidium iodide (PI). Absolute numbers of immune cell subtypes in the peritoneum were calculated by multiplying total peritoneal cell numbers by percentages of immune cell subtypes amongst total cells. Cells were analyzed on a Beckman Coulter Cyan ADP flow cytometer. Paired antibodies (capture and detection) and standard recombinant mouse IL-1β and TNF were used to determine mouse cytokine concentrations according to manufacturer's instructions.
# [7] = ccf-mtDNA and Fpg-sensitive Ox-mtDNA in peritoneal exudates of alum-challenged mice; assay type: in vivo, mouse; settings: FEN1-IN-4 40 mg/kg, exudates 4 and 16 hrs post-challenge
# BMDM [8] = assay: extracellular (cell-free) mtDNA released by donor BMDM; assay type: cell-based, mouse; settings: LPS-primed donor BMDM pretreated with compound, challenged with ATP or nigericin
# Description: Extracellular DNA of donor macrophages (1500,000 cells per group) was isolated using QIAamp Circulating Nucleic Acid Kit according to manufacturer's instructions and then eluted in 300 μL distilled H2O and quantified using spectrophotometric analysis at 260/280 nm with Nanodrop. […] Applicant used 5% of the prepared DNA for qPCR measurement of extracellular mtDNA and the remaining 95% were added to the recipient BMDM for analyzing the paracrine immunostimulatory effects.
# BMDM [9] = assay: stimulation of naive recipient BMDM by cell-free mtDNA (cytokine and ISG mRNA, qPCR); assay type: cell-based, mouse; settings: recipient BMDM incubated 24 h with DNA from compound-pretreated donor BMDM; cytokine and ISG mRNAs
# Description: RNA was extracted using AllPrep DNA/RNA Mini kit, and cDNA was synthesized using SuperScript™ VILO™ cDNA Synthesis Kit. mRNA expression was determined by QPCR in a CFX96 thermal cycler (Biorad) as described (Xian et al., 2021). Data are presented in arbitrary units and calculated by the 2^(−ΔΔCT) method. Primer sequences were obtained from the NIH qPrimerDepot (http://mouseprimerdepot.nci.nih.gov) and provided by Integrated DNA technologies.
# Extracellular DNA of donor macrophages (1500,000 cells per group) was isolated using QIAamp Circulating Nucleic Acid Kit according to manufacturer's instructions and then eluted in 300 μL distilled H2O and quantified using spectrophotometric analysis at 260/280 nm with Nanodrop. DNA amounts purified among the different treatment groups vary. The DNA amount secreted from LPS-primed donor BMDM is low, approximately at 0.1 μg. The amount of DNA released by LPS-primed donor BMDM challenged with ATP is about 1.3 μg, while the amount of DNA released by LPS-primed donor BMDM challenged with nigericin is around 2 μg. The amount of DNA secreted by LPS-primed donor BMDM challenged with MSU or alum is about 0.7 μg. Applicant used 5% of the prepared DNA for qPCR measurement of extracellular mtDNA and the remaining 95% were added to the recipient BMDM for analyzing the paracrine immunostimulatory effects.
# BMDM [10] = assay: mtROS (MitoSOX) in BMDM; settings: LPS-primed BMDM, compound pretreatment 16 h, ATP or nigericin
# Description: as §1
# Mitochondrial membrane potential was measured using TMRM according to manufacturer's instructions. Briefly, BMDM were primed or not with LPS for 4 h, and further stimulated with ATP or nigericin for 60 minutes. Cells were incubated with 200 nM TMRM for 30 minutes at 37° C. After washing twice, fluorescence intensity was determined per manufacturer's instructions using a FilterMax F5 multimode plate reader (Molecular Devices). Mitochondrial reactive oxygen species (mtROS) were measured using MitoSOX (Invitrogen) as described (Xian et al., 2021). BMDM treated as indicated were loaded with 4 μM MitoSOX for 20 minutes. After washing with PBS twice, cells were resuspended in PBS and counted. Equal numbers of cells from different treatment groups were then plated onto 96-well plates for fluorescence reading. To quantify [Ca^2+]m by 5 μM Rhod-2 or intracellular Ca^2+ intensity by 1 μM Fluo-4, BMDM treated as indicated were loaded with the respective dyes according to manufacturer's instructions for 30 minutes. After washing twice, fluorescence intensity was determined using a FilterMax F5 multimode plate reader (Molecular Devices). To analyze mPTP opening by calcein-quenching assay, BMDM treated as indicated were loaded with calcein at 2 μM and CoCl2 at 160 μM for 30 minutes at 37° C. according to manufacturer's instructions. After washing twice, fluorescence intensity was determined per with a FilterMax F5 multimode plate reader (Molecular Devices).
# BMDM [11] = assay: 8-OH-dG content of mtDNA from mitochondria of BMDM; settings: LPS-primed BMDM, FEN1-IN-4 pretreatment, ATP or nigericin
# Description: as §1, §2
# STING = STING Ser365 phosphorylation (puncta by immunofluorescence, immunoblot) in BMDM; settings: CsA 1 μM, VBIT-4 10 μM or FEN1-IN-4 10 μM 16 hrs
# Description: as §1
# Whole cell lysates were prepared in RIPA buffer (25 mM Tris-HCl pH 7.6, 150 mM NaCl, 1% NP-40, 1% sodium deoxycholate, 0.1% SDS) containing a protease inhibitor cocktail and a phosphatase inhibitor cocktail. Protein concentrations were determined using BCA Protein Assay Kit. Equal amounts of protein were separated by SDS-PAGE and transferred onto PVDF membranes, blocked in 5% BSA in 1×TBST for 1 h and incubated with primary antibodies overnight. Secondary antibodies were added for 1 h and detection was performed using Clarity Western ECL Substrate.
# BMDM were fixed in 4% paraformaldehyde (PFA), permeabilized in 0.2% Triton X-100,and blocked in 1×PBS supplemented with 3% BSA. […] Nuclei were counterstained with DAPI.
# [12] = FEN1-IN-4 40 mg/kg 16 h prior to i.p. alum 1 mg, exudate 4 h later
# [13] = FEN1-IN-4 40 mg/kg 16 h prior to i.p. alum, 16 h
structure (smiles),measurement,setting,value
O=c1c2ccccc2n(CC2CC2)c(=O)n1O [FEN1-IN-4],cytosolic Ox-mtDNA (release),BMDM [1],abrogated
same,cytosolic mtDNA release,BMDM [2],abrogated
same,NLRP3 inflammasome activation (Casp1 activation and mature IL-1β secretion),NLRP3 inflammasome [3],dose-dependent inhibition
same,LPS-stimulated mtDNA synthesis (total mtDNA),BMDM [4],did not affect
same,mtDNA fragmentation,BMDM [5],abrogated
same,alum-induced NLRP3 inflammasome-dependent IL-1β production in vivo (peritoneal IL-1β),NLRP3 inflammasome [6]; [12],inhibited
same,peritoneal TNF secretion in vivo,NLRP3 inflammasome [6]; [12],without an effect
same,monocyte infiltration (peritoneal),NLRP3 inflammasome [6]; [13],reduced
same,neutrophil infiltration (peritoneal),NLRP3 inflammasome [6]; [13],reduced
same,ccf-mtDNA secretion into peritoneal exudates,[7],inhibited
same,Ox-mtDNA secretion into peritoneal exudates,[7]; Fpg-sensitive qPCR,inhibited
same,cell-free mtDNA release,BMDM [8],inhibited
same,immunostimulatory activity of DNA secreted by treated donor BMDM,BMDM [9],inhibited
same,mtROS production,BMDM [10],no effect
same,Ox-mtDNA generation (8-OH-dG in mitochondrial mtDNA),BMDM [11],no effect
same,formation of Ser^365 phosphorylated STING puncta,"STING; LPS-primed BMDM, ATP or nigericin",diminished
same,ATP-induced STING Ser^365 phosphorylation (immunoblot) in Nlrp3−/− BMDM,"STING; LPS-primed Nlrp3−/− BMDM, ATP",completely blocked
